{"source": "patent US10098346B2", "about": "“Diphenyliodonium salts as sulfidogenesis inhibitors and antimicrobials” (Ecolab USA Inc., priority 2015, dated 2018)", "type_in_all_cases": "cell-based", "key": {"[1]": {"tested_on": "hydrogen sulfide production by sulfur utilizing prokaryote", "assay": "Hydrogen sulfide test kit (HACH, Model HS-C) in injection water aliquots", "conditions": "injection water (synthetic seawater, produced water, lactate, thiosulfate); 0.1-100 ppm; up to 305 days", "description": "(§1) A hydrogen sulfide test kit (HACH, Model HS-C) and an AccuCount test kit (available from Nalco Champion) were used to test the efficacy of diphenyliodonium chloride (DPIC) and diphenyliodonium nitrate (DPIN) in 100 mL aliquots of injection water collected by mixing synthetic seawater, produced water from an oil and gas production facility off-shore California, USA, lactate, and thiosulfate. The results of the testing of DPIC at 11 days, 84 days, and 305 days at concentrations of 0.1 ppm, 1 ppm, 10 ppm, and 100 ppm are shown in FIG. 2. The results of the testing of DPIC at 84 days and 305 days at concentrations of 0.1 ppm, 1 ppm, and 10 ppm are shown in FIG. 3. The results of the testing of DPIC and DPIN at 1 day, 7 days, and 14 days at concentrations of 0.1 ppm, 1 ppm, and 10 ppm in synthetic seawater are shown in the FIG. 4. The results of testing of DPIC and DPIN at 4 hours, 1 day, and 30 days at concentrations of 10 ppm and 100 ppm in 80% produced water, 50% produced water, and 20% produced water are shown in FIG. 5."}, "active microbes": {"tested_on": "active microbes", "assay": "AccuCount test kit, level of active microbes in injection water aliquots", "conditions": "injection water (synthetic seawater, produced water, lactate, thiosulfate); 0.1-100 ppm; up to 305 days", "description": "as §1"}, "[2]": {"assay": "Next-generation DNA sequencing, relative abundance of each genus in treated samples", "conditions": "DPIC 1 ppm - 305 Days"}, "[3]": {"tested_on": "sulfur reducing prokaryotes", "assay": "Next-generation DNA sequencing, relative abundance of each genus in treated samples", "conditions": "1 ppm, 305 days"}}, "data": [{"compound": "[Cl-].c1ccc([I+]c2ccccc2)cc1", "note": "[DPIC, diphenyliodonium chloride]", "values": [{"measurement": "reducing the concentration hydrogen sulfide", "setting": "[1]", "result": "effective"}, {"measurement": "reducing the level of active microbes", "setting": "active microbes", "result": "effective"}, {"measurement": "Relative Abundance, Acholeplasma sp. (APB)", "setting": "[2]", "result": 0.2, "unit": "%"}, {"measurement": "Relative Abundance, Citrobacter sp. (APB)", "setting": "[2]", "result": 0.3, "unit": "%"}, {"measurement": "Relative Abundance, Cryptanaerobacter sp. (APB)", "setting": "[2]", "result": 0.1, "unit": "%"}, {"measurement": "Relative Abundance, Kluyvera sp. (APB/GHB/NRB)", "setting": "[2]", "result": 3.5, "unit": "%"}, {"measurement": "Relative Abundance, Mangrovibacter sp. (NRB)", "setting": "[2]", "result": 0.2, "unit": "%"}, {"measurement": "Relative Abundance, Proteiniphilum sp. (APB)", "setting": "[2]", "result": 0.3, "unit": "%"}, {"measurement": "Relative Abundance, Pseudomonas sp. (NRB/GHB)", "setting": "[2]", "result": 0.5, "unit": "%"}, {"measurement": "Relative Abundance, Raoultella sp. (APB)", "setting": "[2]", "result": 28.8, "unit": "%"}, {"measurement": "Relative Abundance, Serratia sp. (NRB/GHB)", "setting": "[2]", "result": 59.3, "unit": "%"}, {"measurement": "Relative Abundance, Shimwellia sp. (APB)", "setting": "[2]", "result": 6.7, "unit": "%"}, {"measurement": "Relative Abundance, Sphaerochaeta sp. (APB)", "setting": "[2]", "result": 0.2, "unit": "%"}, {"measurement": "Relative Abundance, Thermovirga sp. (SRB)", "setting": "[2]", "result": 0.1, "unit": "%"}, {"measurement": "sulfur reducing prokaryotes by DNA sequencing", "setting": "[3]", "result": "no detectable"}]}, {"compound": "O=[N+]([O-])[O-].c1ccc([I+]c2ccccc2)cc1", "note": "[DPIN, diphenyliodonium nitrate]", "values": [{"measurement": "reducing the concentration hydrogen sulfide", "setting": "[1]", "result": "effective"}, {"measurement": "reducing the level of active microbes", "setting": "active microbes", "result": "effective"}]}]}
